# Results published in publication PMC7956819, “Peptides from the Intestinal Tract of Breast Milk-Fed Infants Have Antimicrobial and Bifidogenic Activity” (International Journal of Molecular Sciences, 2021).
# Peptide text beside a SMILES is read from it.
# What was measured:
# Format in all cases: cell-based
# [1] = tested on: Bifidobacterium longum spp. infantis ATCC 15697; settings: ATCC 15697, 18 h
# Protocol: (§1) The bioactivity of the intestinal peptide extracts was determined via the microdilution method. Antimicrobial activity was screened with E. coli and S. aureus as representatives of common infant pathogens responsible for infectious disease, and growth-promoting activity was screened with B. infantis, one of the ideal colonizers of the infant gut. For the antimicrobial assays, colonies of bacteria were selected and inoculated in 2 mL of MHB and incubated at 37 °C for 24 h. The inoculum was diluted to 2 × 10^5 CFU/mL with MHB. For the growth-promoting assays, 100 µL of stock bacteria were inoculated in 10 mL of reinforced clostridial broth supplemented with 0.1% ascorbic acid and incubated under anaerobic conditions (BD BBL™ GasPak™) at 37 °C for 24 h. Optical density was measured at 600 nm, and the inoculum was diluted to an optical density of 0.05 with reinforced clostridial broth.
# (§2) The intestinal peptide extracts were serially diluted with PBS to concentrations of 1×, 1/2×, 1/4×, 1/8×, 1/16×, 1/32×, 1/64×, and 1/128×. In a 96-well plate, 50 µL of each dilution was incubated with 50 µL of inoculum in duplicate, along with a negative control of 50 µL of inoculum with 50 µL of pure PBS and a sterility test of 50 µL of peptide with 50 µL of broth. Growth was determined by optical density readings at 600 nm (OD600) taken at 0 h (T0) and 18 h (T18). The following equation was used to determine percent inhibition or promotion of bacterial growth:
# (§3) Candidate peptides were synthesized and dissolved in sterile nanopure water. Antimicrobial and growth-promoting assays were carried out as described above with serial dilutions ranging from […] to 15.6 μg/mL. Minimum inhibitory concentration (MIC) was determined by the concentration at which all visible growth was inhibited.
# [2] = tested on: Escherichia coli BL21 (DE3); settings: BL21, 18 h
# Protocol: as §1, §2, §3
# [3] = tested on: Staphylococcus aureus ATCC 12600; settings: ATCC 12600, 18 h
# Protocol: as §1, §2, §3
compound,measurement,setting,value
CC(C)C[C@H](NC(=O)[C@H](CC(=O)O)NC(=O)[C@H](CCCCN)NC(=O)[C@@H](N)Cc1ccccc1)C(=O)NCC(=O)N[C@@H](CCC(=O)O)C(=O)N[C@@H](CCC(=O)O)C(=O)N[C@@H](CC(N)=O)C(=O)N[C@@H](Cc1ccccc1)C(=O)N[C@@H](CCCCN)C(=O)O [Peptide 11] (H-FKDLGEENFK-OH),B. infantis MIC,[1],>3000 µg/mL
same,E. coli MIC,[2],3000 µg/mL
same,S. aureus MIC,[3],3000 µg/mL
